{"source": "patent US20220241378A1", "about": "“COMPOSITIONS AND METHODS FOR TREATMENT OF CHRONIC GRANULOMATOUS DISEASE” (priority 2019, published 2022)", "key": {"[1]": {"system": "p47phox-/- mice infected intranasally with A. fumigatus conidia", "assay": "Survival of p47phox-/- mice infected intranasally with A. fumigatus conidia", "assay_type": "in vivo", "experimental": "To determine whether Tβ4 ameliorates tissue and immune pathologies in CGD mice the inventors of the present disclosure conducted experiments measuring the effect of Tβ4 in mice with aspergillosis and colitis. Specifically, mice were monitored for fungal growth, antifungal activity of effector cells, survival, lung histopathology, innate and adaptive Th immunity. […] Gross lung pathology and histological examination was conducted on p47phox-/- mice. […] Conversely, Tβ4 deficiency by means of siTβ4 administration promoted lung pathology in C57BL/6 mice (FIG. 10B).\nViable conidia from the A. fumigatus Af293 strain were obtained as described (De Luca et al., 2012). Mice were anesthetized in a plastic cage by inhalation of 3% isoflurane (Forane Abbot) in oxygen before intranasal instillation of 2×10^7 resting conidia/20 μl saline. For survival curves, p47^phox-/- mice were challenged with […] conidia/20 μl saline. […] Fungal burden was determined by qPCR and expressed as conidial equivalents (CE). […] Fungal burden was quantified by qPCR by using the sequences for the multicopy 18S ribosomal DNA gene. […]\nGraphPad Prism 6.01 program (GraphPad Software) was used for analysis. Data are expressed as mean ±SD. Statistical significance was calculated by two-way ANOVA (Tukey's or Bonferroni's post hoc test) for multiple comparisons. […] Cell fluorescence intensity was measured by using the ImageJ software."}, "[2]": {"system": "peritoneal polymorphonuclear cells and alveolar macrophages", "assay": "Phagocytosis and conidiocidal activity of effector phagocytes pulsed with live Aspergillus conidia", "assay_type": "cell-based, mice", "details": "10 and 100 nM 1 hour before 2 hours pulsing with conidia (FIG. 4B)", "experimental": "Murine polymorphonuclear cells (PMNs) from C57BL/6 or p47phox-/- uninfected mice were positively selected with magnetic beads (Miltenyi Biotech) from the peritoneal cavity of mice 8 hours after the intraperitoneal injection of 1 ml endotoxin-free 10% thioglycolate solution. On fluorescence-activated cell sorting (FACS) analysis, Gr-1+PMNs were 98% pure and stained positive for the CD11b myeloid marker. Monolayers of plastic-adherent macrophages were obtained, after 2 hours plastic adherence, from lung of C57BL/6 and p47phox-/- uninfected mice. Cells were pre-treated for 1 hour with different concentrations of Tβ4 (10 and 100 nM) before pulsing with A. fumigatus conidia (1:3 cell/fungus ratio for phagocytosis and 10:1 cell/fungus for conidiocidal activity) for 120 min at 37° C. The percentage of CFU inhibition (mean±SD) was determined as described previously (Bellocchio et al., 2004 TLRs govern neutrophil activity in aspergillosis. J Immunol 173:7406-7415)."}}, "data": [{"substance": "Thymosin β4 [Tβ4]", "values": [{"measurement": "mice survived at the time when all untreated mice had died", "setting": "[1]; p47phox-/- mice treated for 5 days (FIG. 9)", "value": "more than 50%"}, {"measurement": "survival of infected mice", "setting": "[1]; p47phox-/- mice treated for 5 days vs untreated (FIG. 9)", "value": "significantly increased"}, {"measurement": "fungal killing of effector phagocytes (conidiocidal activity)", "setting": "[2]", "value": "potentiate"}, {"measurement": "phagocytosis of effector phagocytes", "setting": "[2]", "value": "potentiate"}]}]}
